Literature values as cited in patent US6670343B1, “Drugs for periodontal disease” (Toray Industries, Inc., priority 1999, dated 2003).

Details: reported in J. Periodontology 63, 825-830 (1992)

NCCCC(O)(P(=O)(O)O)P(=O)(O)O [4-amino-1-hydroxybutylidene-1,1-bisphosphonic acid]
effect on alveolar bone resorption: effectively suppresses alveolar bone resorption | effect on dental pocket formation and gingival inflammation: not effective
